Reference: patent publication US20220249687A1, “BIS(2-HALOACETAMIDO)-COMPOUNDS FOR USE AS LINKING AGENTS AND RESULTANT PRODUCTS WHICH COMPRISE ANTIBODIES, HALF-ANTIBODIES AND ANTIBODY FRAGMENTS” (THE UNIVERSITY OF BATH, priority 2019, published 2022)

Assay: Reactivity of linker compounds with glutathione
Conditions: pH=7, RT
Description: Relative reactivities of the compounds were evaluated towards the small thiol containing peptide glutathione (pH=7, RT). […] Without wishing to be bound by any particular theory, the inventors speculate that the difference in reactivity and stability of the ortho and meta compounds may be attributed to differences in the 3D structures of each compound. Methyl 3,5-bis(2-chloroacetamido)benzoate (1) is predicted to have a planar conformation. Thus, steric hindrance could slow the backside attack of thiolate at the carbon attached to halogen (through an SN2 mechanism). This might explain the greater reactivity of ortho compounds like methyl 3,4-bis(2-chloroacetamido)benzoate (4). Compound (4) is not planar and might afford a more accessible carbon for backside attack.
The reactivity of the linker compounds of the present invention was tested by reaction with glutathione. The following representative reactions are described. Analogous reactions were performed with amide functionalised linker compounds.
The inventors compared the reactivity of various linker compounds of the invention by determining the percentage remaining of the bis-haloacetamide derivatives 14-17 in the presence of glutathione (2.2 equiv.) in aqueous phosphate buffer (100 mM, pH 7.5).

COC(=O)c1ccc(NC(=O)CCl)c(NC(=O)CCl)c1 [Compound 4, methyl 3,4-bis(2-chloroacetamido)benzoate]
relative reactivity towards glutathione (reaction rate): react significantly faster than the 3,5-bis-Cl compound (1)
